Converted amounts (≈) assume the structure as drawn. Read-outs that look alike come from different tables or passages of the source.
Experiments:
P. aeruginosa [1] = assay: MIC/MBC assay, twofold serial dilution; type: cell-based, Pseudomonas aeruginosa
Method: (§1) The results of this in vitro assay test are consistent with the findings of the antimicrobial sensitivity test. […] It has lower antimicrobial activity than ciprofloxacin against all pathogens tested.
(§2) The MBC differs from the MIC. […]
(§3) 4.2.2. Minimum inhibitory concentration assay
(§4) In 96-well microtiter plates and […] of fresh bacterial culture of a single McFarland unit overnight, a double serial dilution of each compound […] in sterile standard saline were prepared to every single source well. Ciprofloxacin antibiotic (5 mg / mL - 1) and normal saline were included as standard reference in each assay. The plates were incubated at 37 0C overnight. As an indicator of bacterial growth, […] of p-iodonitrotetrazolium violet (INT) was added to each well and incubated at 37 0C for 30 […]
(§5) min. MIC values are recorded as the lowest concentration of the extract that completely inhibited bacterial growth that is clear well. The colorless tetrazolidium salt acts as an electron accepter and is reduced to a red colored formazan product by biological activity organisms. Where bacterial growth was inhibited, the solution in the well remained clear after incubation with INT. […]

A. flavus [2] = assay: Modified disk diffusion, inhibition zone; type: cell-based, Aspergillus flavus
Method: (§6) The antimicrobial effects of the currently synthesized Schiff bases (6a-l) were tested against two Gram-positive bacteria (S. aureus and B. subtilis), two Gram-negative bacteria (E. coli and P. aeruginosa), and two strains of fungus (A. flavus and C. albicans). The modified disk diffusion method ([Alkhaldi et al., 2019]; [Manso et al., 2021]) was used to determine the inhibition zones (IZ, mm/mL) and the minimal inhibitory concentration (MIC, nM). Ciprofloxacin and Fluconazole was used as positive controls. Tables 1–3 display the findings. […]
(§7) incubated at 35-37 °C for 24-48 hours and yeast as Candida albicans (ATCC 7102) incubated at 30 °C for 24-48 hours and, then the diameters of the inhibition zones were measured in millimeters. Standard discs of ciprofloxacin (Antibacterial agent), Fluconazole (Antifungal agent) served as positive controls for antimicrobial activity but filter discs impregnated with 10 µl of solvent (distilled water, chloroform, DMSO) were used as a negative control. Blank paper disks (Schleicher & Schuell, Spain) with a diameter of 8.0 mm were impregnated 10µ of tested concentration of the stock solutions. When a filter paper disc impregnated with a tested chemical is placed on agar the chemical will diffuse from the disc into the agar. This diffusion will place the chemical in the agar only around the disc. […]

B. subtilis [3] = assay: MIC/MBC assay, twofold serial dilution; type: cell-based, Bacillus subtilis
Method: as §1, §2, §3, §4, §5

C. albicans [4] = assay: Modified disk diffusion, inhibition zone; type: cell-based, Candida albicans
Method: as §6, §7

[5] = test system: Gram-positive and Gram-negative bacteria; assay: Disk diffusion inhibition zone, all bacterial pathogens tested; type: cell-based
Method: (§8) The antimicrobial effects of the currently synthesized Schiff bases (6a-l) were tested against two Gram-positive bacteria (S. aureus and B. subtilis), two Gram-negative bacteria (E. coli and P. aeruginosa), and two strains of fungus (A. flavus and C. albicans). The modified disk diffusion method ([Alkhaldi et al., 2019]; [Manso et al., 2021]) was used to determine the inhibition zones (IZ, mm/mL) and the minimal inhibitory concentration (MIC, nM). Ciprofloxacin and Fluconazole was used as positive controls. Tables 1–3 display the findings.

E. coli [6] = assay: MIC/MBC assay, twofold serial dilution; type: cell-based, Escherichia coli
Method: as §1, §2, §3, §4, §5

S. aureus [7] = assay: MIC/MBC assay, twofold serial dilution; type: cell-based, Staphylococcus aureus
Method: as §1, §2, §3, §4, §5

P. aeruginosa [8] = assay: Modified disk diffusion, inhibition zone; type: cell-based, Pseudomonas aeruginosa; settings: P. aeruginosa (G−)
Method: as §6, §7

[9] = test system: A. flavus and C. albicans; assay: Disk diffusion inhibition zone, both fungi; type: cell-based; settings: against A. flavus and C. albicans
Method: as §8

A. flavus [10] = assay: Antifungal assay (MIC/MFC), twofold serial dilution; settings: for MIC: A. flavus
E. coli [11] = assay: Modified disk diffusion, inhibition zone; type: cell-based, Escherichia coli; settings: E. coli (G−)
Method: as §6, §7

S. aureus [12] = assay: Modified disk diffusion, inhibition zone; type: cell-based, Staphylococcus aureus; settings: S. aureus (G+)
Method: as §6, §7

B. subtilis [13] = assay: Modified disk diffusion, inhibition zone; type: cell-based, Bacillus subtilis; settings: B. subtilis (G+)
Method: as §6, §7

C. albicans [14] = assay: Antifungal assay (MIC/MFC), twofold serial dilution

## O=C(O)c1cn(C2CC2)c2cc(N3CCNCC3)c(F)cc2c1=O [Ciprofloxacin, reference compound]
P. aeruginosa [1]
  MBC: 0.09 ± 0.006 µM (≈ 0.0298 µg/mL)
P. aeruginosa [1]; Pseudomonas aeruginosa, read-out: MBC
  MBC: 0.09 µM (≈ 0.0298 µg/mL)
P. aeruginosa [1]; Pseudomonas aeruginosa, read-out: MIC
  MIC: 0.06 ± 0.005 µM (≈ 0.0199 µg/mL)
A. flavus [2]
  Inhibition zone (IZ) diameter: NA (NA: no activity (8 mm))
B. subtilis [3]
  MBC: 0.019 ± 0.001 µM (≈ 0.0063 µg/mL)
  MIC: 0.01 ± 0.001 µM (≈ 0.00331 µg/mL)
B. subtilis [3]; Bacillus subtilis, read-out: MBC
  MBC: 0.019 µM (≈ 0.0063 µg/mL)
B. subtilis [3]; Bacillus subtilis, read-out: MIC
  MIC: 0.01 µM (≈ 0.00331 µg/mL)
C. albicans [4]
  Inhibition zone (IZ) diameter: NA (NA: no activity (8 mm))
[5]
  Inhibition zones (IZ): 40 mm
E. coli [6]
  MBC: 0.09 ± 0.006 µM (≈ 0.0298 µg/mL)
E. coli [6]; Escherichia coli, read-out: MBC
  MBC: 0.09 µM (≈ 0.0298 µg/mL)
E. coli [6]; Escherichia coli, read-out: MIC
  MIC: 0.06 ± 0.004 µM (≈ 0.0199 µg/mL)
S. aureus [7]
  MBC: 0.045 ± 0.002 µM (≈ 0.0149 µg/mL)
  MIC: 0.03 ± 0.002 µM (≈ 0.00994 µg/mL)
S. aureus [7]; Staphylococcus aureus, read-out: MBC
  MBC: 0.045 µM (≈ 0.0149 µg/mL)
S. aureus [7]; Staphylococcus aureus, read-out: MIC
  MIC: 0.03 µM (≈ 0.00994 µg/mL)

## OC(Cn1cncn1)(Cn1cncn1)c1ccc(F)cc1F [Fluconazole, reference compound]
P. aeruginosa [8]
  Inhibition zone (IZ) diameter: NA (NA: no activity (8 mm))
[9]
  IZ values: 40 mm
A. flavus [10]
  MIC: 11.50 ± 1 µM (≈ 3.52 µg/mL)
A. flavus [10]; Aspergillus flavus
  MFC: 22.8 ± 1 µM (≈ 6.98 µg/mL)
  MIC: 11.5 µM (≈ 3.52 µg/mL)
E. coli [11]
  Inhibition zone (IZ) diameter: NA (NA: no activity (8 mm))
S. aureus [12]
  Inhibition zone (IZ) diameter: NA (NA: no activity (8 mm))
B. subtilis [13]
  Inhibition zone (IZ) diameter: NA (NA: no activity (8 mm))
C. albicans [14]; C. albicans
  MIC: 17.50 ± 1 µM (≈ 5.36 µg/mL)
C. albicans [14]; Candida albicans
  MFC: 35 ± 2 µM (≈ 10.7 µg/mL)
  MIC: 17.5 µM (≈ 5.36 µg/mL)
